Results: patent publication US20250188457A1, “COMPOSITIONS AND METHODS FOR THE TREATMENT OF GLIOBLASTOMA BY INHIBITION OF THE TFPI2-CD51-STAT6 SIGNALING AXIS” (Northwestern University, priority 2023, published 2025)

Test system: JURKAT T cells cocultured with PrhMG
Experiment: Human microglia-T cell co-culture, flow cytometry
Format: cell-based
Details: TFPI2 recombinant protein 20 ng/ml; AS1517499 25 nM
Experimental: For membrane protein staining, the single-cell suspensions were washed with PBS and then incubated with fixable viability dye (Invitrogen, #5211229035) on ice for 10 min. Following washing with PBS, cells were incubated with the anti-CD16/CD32 cocktail (BioLegend, #103132) in 2% BSA PBS to block Fc receptors for 30 min on ice. Different antibody combinations, including Percp/Cy5.5 anti-mouse CD45 (BioLegend, #103132), AF488 anti-mouse CD3 (BioLegend, #100210), BV421 anti-mouse CX3CR1 (BD Bioscience, #567531), BUV395 anti-mouse CD4 (BD Bioscience, #740208), BV711 anti-mouse CD8 (BioLegend, #100747), PE/Cy7 anti-mouse/human CD11b (BioLegend, #101216), PE anti-mouse CD68 (BD Bioscience, #566386), PE anti-mouse PD1 (BioLegend, #135205), AF647 anti-mouse CD206 (BD Bioscience, #565250), AF647 anti-human CD206 (BioLegend, #321116), PE anti-human CD69 (BioLegend, #310906), PE/Cy7 anti-mouse CD69 (BioLegend, #104512), and BV650 anti-human HLA-DR (BioLegend, #307650) were added to cell suspensions for 30 min on ice. […] Samples were read in BD FACSymphony flow cytometer and analyzed in FlowJo v10.8.1. […] Then cell suspensions were rewashed in permeabilization buffer and read in BD FACSymphony flow cytometer.

NC(=O)c1cnc(NCCc2ccc(O)c(Cl)c2)nc1NCc1ccccc1 [AS1517499]
suppression of JURKAT T cell viability and activation by TFPI2-polarized microglia: prevented
